Like-named read-outs stand apart in the source and are kept apart here.
Columns and labels:
[1] = Experimental: The sample weight was monitored for 20 minutes at probable extrusion temperatures of 50, 55 and 60° C. This duration is longer than expected process time for small batches including hold time in hoppers.
[2] = remark: listed apart in the source
Experimental: During thermo-gravimetric analysis (TGA), the weight of a sample is measured very accurately as the sample is undergoing a temperature program (usually a gradual increase in temperature). Changes in the sample that result in weight differences will be detected, and can be correlated to temperature. This technique was used to investigate the onset temperatures of dehydration and degradation of the nicotine salt.
Table 4 details the temperature program for this study. The sample was heated from 30 to 950° C. under nitrogen (inert gas) or air.

CN1CCCC1c1cccnc1.O.O.O=C(O)C(O)C(O)C(=O)O (centres unmarked) [Nicotine bitartrate dihydrate]
weight loss after isothermal hold ([1]; 20 minute hold at 50 °C): 0.497%
weight loss after isothermal hold ([1]; 20 minute hold at 55 °C): 0.678%
weight loss after isothermal hold ([1]; 20 minute hold at 60 °C): 1.147%
First Event Onset Temperature ([2]; Air purged sample): 73.93 °C
Second Event Onset Temperature ([2]; Air purged sample): 190.23 °C
First Event Onset Temperature ([2]; Nitrogen purged sample): 72.54 °C
Second Event Onset Temperature ([2]; Nitrogen purged sample): 190.78 °C
first TGA event inflection ([2]; scan 30 to 950 °C): 82 °C
first TGA event onset ([2]; scan 30 to 950 °C): 73 °C
second TGA event inflection ([2]; scan 30 to 950 °C): 203 °C
weight loss, first TGA event ([2]; scan 30 to 950 °C): about 4%

Source: patent publication US20130011462A1, “MELT EXTRUDED NICOTINE THIN STRIPS” (Novartis AG, priority 2009, published 2013)
